# Experimental data as given in patent US20210015749A1, “NANOCOCHLEATE FORMULATION AND METHOD OF PREPARING THE NANOCOCHLEATE FORMULATION” (priority 2019, published 2021).
# Tested on: glucocorticoid-treated rats
# Experiment: Biochemical tests of serum bone parameters in treatment groups of osteoporotic (prednisolone) rats
# Format: in vivo, rat
# [1] = serum, * = significant difference with prednisolone group
substance,measurement,setting,value
Vitamin D,Ph,serum phosphorus,7.525 ± 0.4272
same,Bone-ALP,[1],312 ± 24.42
same,Ca,[1],9.367 ± 0.3786
same,OPG,[1],3.325 ± .9012
same,Osteocalcin,[1],16.5 ± 2.121
